Source: patent US4663320A, “(2-oxo-1,2,3,5-tetrahydroimidazo[2,1-b]quinoazolinyl)oxyalkylamides, compositions and the use thereof” (Syntex (U.S.A.) Inc., priority 1985, dated 1987)

What was measured:
[1] = test system: Human platelet cyclic AMP phosphodiesterase; assay: Cyclic AMP phosphodiesterase assay (human platelet); type: biochemical; details: for IC50: human platelet phosphodiesterase, 1 μM cyclic AMP as substrate; for Relative Potency: relative to theophylline (assigned a value of 1) on human platelet phosphodiesterase
Method: (§1) The inhibition of cyclic AMP phosphodiesterase activity by the subject compounds was assayed by the method of Filburn and Karn, Analyt. Biochem., 52:505-516 (1973), using 1 μM cyclic AMP as the substrate. Human platelet cyclic AMP phosphodiesterase was obtained from human donors. Platelets were isolated and washed by centrifugation, the membranes ruptured by a sequential freeze-thaw procedure and hypotonic lysis and the soluble enzyme isolated by high speed centrifugation. The enzyme was stored in aliquots at -20° C.
(§2) This table contains the IC50 values for human platelet phosphodiesterase and IC25 values for rat heart phosphodiesterase.

[2] = test system: rat heart phosphodiesterase; assay: Cyclic AMP phosphodiesterase inhibition (rat heart); type: biochemical
Method: as §1, §2

[3] = test system: Mongrel dogs; assay: Inotropic activity in anesthetized dogs; type: in vivo; details: dog
Method: Mongrel dogs were anesthetized intravenously with 35 mg/Kg sodium pentobarbital and supplemented as needed. Blood pressure was measured with a Statham pressure transducer via a cannula inserted from a femoral artery into the abdominal aorta. Heart rate was recorded by a cardiotachometer from a lead II electrocardiogram. Right ventricular contractile force was recorded from a Walton-Brodie strain gauge sutured to the right ventricle following a midsternal thoracotomy. A Harvard respirator was used to ventilate the dogs with room air through an endotracheal tube. The dog was bilaterally vagotomized. Following a midline laparotomy, a cannula was sutured into the duodenum for intraduodenal administration of test compound. A femoral vein was cannulated for administration of isoproterenol. All data were recorded on a Beckman R611 Dynograph.
To assess the responsiveness of each dog, isoproterenol was given intravenously at half-log interval doses from 0.007 to 2.1 or 6.67 μg/Kg. The test compound was then administered intraduodenally, usually at a low dose of 2 mg/Kg and subsequently at higher doses of 6.32 and/or 20 mg/Kg, if necessary. In a few instances, some compounds administered intraduodenally at dose levels from 0.316 to 3.16 mg/Kg.

Structure (SMILES) | IC50 [1] [nM] | Relative Potency [1] | Rat Heart IC25 [2] | also measured
CC(C)C(=O)OCCN(C(=O)CCCOc1ccc2c(c1)CN1CC(=O)NC1=N2)C1CCCCC1 | 1.1 | 245,000 | – | –
CC(C)(C)C(=O)OCCN(C(=O)CCCOc1ccc2c(c1)CN1CC(=O)NC1=N2)C1CCCCC1 | 1 | 270,000 | – | –
O=C1CN2Cc3cc(OCCCC(=O)N4CCCC5CCCCC54)ccc3N=C2N1 (racemic) [(±)-decahydroquinloninyl-4-(2-oxo-1,2,3,5-tetrahydroimidazo[2,1-b]quinazolin-7-yl)oxybutyramide] | 13.5 | 20,000 | 200 nM | –
O=C1CN2Cc3cc(OCCCC(=O)N4CCCCC4CC(C4CCCCC4)C4CCCCC4)ccc3N=C2N1 (racemic) [perhexylenyl (n = 3, position 7), perhexylenyl-4-(2-oxo-1,2,3,5-tetrahydroimidazo[2,1-b]quinazolin-7-yl)oxybutyramide] | 1.8 | 146,000 | 36 nM | –
O=C1CN2Cc3cc(OCCCC(=O)N(Cc4ccccc4)Cc4ccccc4)ccc3N=C2N1 [N,N--dibenzyl (n = 3, position 7), N,N-dibenzyl-4-(2-oxo-1,2,3,5-tetrahydroimidazo[2,1-b]quinazolin-7-yl)oxybutyramide] | 9.2 | 29,300 | 60 nM | –
O=C1CN2Cc3cc(OCCCC(=O)N(C4CCCCC4)C4CCCCC4)ccc3N=C2N1 [N,N--dicyclohexyl (n = 3, position 7), N,N-dicyclohexyl-4-(2-oxo-1,2,3,5-tetrahydroimidazo[2,1-b]quinazolin-7-yl)oxybutyramide] | 1.4 | 186,000 | 16 nM | –
O=C1CN2Cc3cc(OCCCC(=O)NC4CCCCC4)ccc3N=C2N1 [N--cyclohexyl (n = 3, position 7), N-cyclohexyl-4-(2-oxo-1,2,3,5-tetrahydroimidazo-[2,1-b]quinazolin-7-yl)oxybutyramide] | 72 | 38,000 | 180 nM | –
CN(Cc1ccccc1)C(=O)CCCOc1ccc2c(c1)CN1CC(=O)NC1=N2 [N--methyl-N--benzyl (n = 3, position 7), N-benzyl-N-methyl-4-(2-oxo-1,2,3,5-tetrahydroimidazo[2,1-b]quinazolin-7-yl)oxybutyramide] | 26 | 10,400 | 240 nM | –
CN(C(=O)CCCOc1ccc2c(c1)CN1CC(=O)NC1=N2)c1ccccc1 [N--methyl-N--phenyl (n = 3, position 7), N-phenyl-N-methyl-4-(2-oxo-1,2,3,5-tetrahydroimidazo[2,1-b]quinazolin-7-yl)oxybutyramide] | 26 | 10,400 | 350 nM | –
CN(C(=O)CCCOc1ccc2c(c1)CN1CC(=O)NC1=N2)C1CCCCCC1 [N-cycloheptyl-N-methyl-4-(2-oxo-1,2,3,5-tetrahydroimidazo[2,1-b]quinazolin-7-yl)oxybutyramide] | 1 | 270,000 | < 10 nM | –
O=C1CN2Cc3cc(OCCCC(=O)N(CCO)C4CCCCC4)ccc3N=C2N1 [N-cyclohexyl-N-(2-hydroxyethyl)-4-(2-oxo-1,2,3,5-tetrahydroimidazo[2,1-b]quinazolin-7-yl)oxybutyramide] | 12.5 | 21,600 | 70 nM | –
COCCN(C(=O)CCCOc1ccc2c(c1)CN1CC(=O)NC1=N2)C1CCCCC1 [N-cyclohexyl-N-(2-methoxyethyl)-4-(2-oxo-1,2,3,5-tetrahydroimidazo[2,1-b]quinazolin-7-yl)oxybutyramide] | 1.3 | 208,000 | < 10 nM | –
CC(=O)OCCN(C(=O)CCCOc1ccc2c(c1)CN1CC(=O)NC1=N2)C1CCCCC1 [N-cyclohexyl-N-(acetoxyethyl)-4-(2-oxo-1,2,3,5-tetrahydroimidazo[2,1-b]quinazolin-7-yl)oxybutyramide] | 1.4 | 193,000 | – | –
O=C1CN2Cc3cc(OCCCC(=O)N(CCOC(=O)c4ccccc4)C4CCCCC4)ccc3N=C2N1 [N-cyclohexyl-N-(benzoyloxyethyl)-4-(2-oxo-1,2,3,5-tetrahydroimidazo[2,1-b]quinazolin-7-yl)oxybutyramide] | 0.94 | 287,000 | – | –
CCN(C(=O)CCCOc1ccc2c(c1)CN1CC(=O)NC1=N2)C1CCCCC1 [N-cyclohexyl-N-ethyl-4-(2-oxo-1,2,3,5-tetrahydroimidazo[2,1-b]quinazolin-7-yl)oxybutyramide] | 1.5 | 180,000 | < 10 nM | –
CC(C)N(C(=O)CCCOc1ccc2c(c1)CN1CC(=O)NC1=N2)C1CCCCC1 [N-cyclohexyl-N-isopropyl-4-(2-oxo-1,2,3,5-tetrahydroimidazo[2,1-b]quinazolin-7-yl)oxybutyramide] | 3.2 | 84,000 | 15 nM | –
CN(C(=O)COc1ccc2c(c1)CN1CC(=O)NC1=N2)C1CCCCC1 [N-cyclohexyl-N-methyl-2-(2-oxo-1,2,3,5-tetrahydroimidazo[2,1-b]quinazolin-7-yl)oxyacetamide] | 820 | 330 | 4,400 nM | –
CN(C(=O)CCCOc1cccc2c1CN1CC(=O)NC1=N2)C1CCCCC1 [N-cyclohexyl-N-methyl-4-(2-oxo-1,2,3,5-tetrahydroimidazo[2,1-b]quinazolin-6-yl)oxybutyramide] | 2000 | 135 | – | –
CN(C(=O)CCCOc1ccc2c(c1)N=C1NC(=O)CN1C2)C1CCCCC1 [N-cyclohexyl-N-methyl-4-(2-oxo-1,2,3,5-tetrahydroimidazo[2,1-b]quinazolin-8-yl)oxybutyramide] | 150 | 1,800 | – | –
CN(C(=O)CCCOc1cccc2c1N=C1NC(=O)CN1C2)C1CCCCC1 [N-cyclohexyl-N-methyl-4-(2-oxo-1,2,3,5-tetrahydroimidazo[2,1-b]quinazolin-9-yl)oxybutyramide] | > 10000 | < 2.7 | – | –
CN(C(=O)CCCOc1ccc2c(c1)CN1C(=N2)NC(=O)[C@H]1CO)C1CCCCC1 [N-cyclohexyl-N-methyl-4-(2-oxo-3-D-hydroxymethyl-1,2,3,5-tetrahydroimidazo[2,1-b]quinazolin-7-yl)oxybutyramide] | 18.5 | 14,600 | 72 nM | –
CN(C(=O)CCCOc1ccc2c(c1)CN1C(=N2)NC(=O)[C@@H]1CO)C1CCCCC1 [N-cyclohexyl-N-methyl-4-(2-oxo-3-L-hydroxymethyl-1,2,3,5-tetrahydroimidazo[2,1-b]quinazolin-7-yl)oxybutyramide] | 27.5 | 9,800 | 90 nM | –
C[C@H]1C(=O)NC2=Nc3ccc(OCCCC(=O)N(C)C4CCCCC4)cc3CN21 [N-cyclohexyl-N-methyl-4-(2-oxo-3-L-methyl-1,2,3,5-tetrahydroimidazo[2,1-b]quinzolin-7-yl)oxybutyramide] | – | – | – | Blood Pressure, peak effect as % of max. isoproterenol ([3]; i.v., 0.1 mg/kg): 97%; Heart Rate, peak effect as % of max. isoproterenol ([3]; i.v., 0.1 mg/kg): 55%; Rt. Ventricular Contractile Force, peak effect as % of max. isoproterenol ([3]; i.v., 0.1 mg/kg): 32%; Blood Pressure, peak effect as % of max. isoproterenol ([3]; intraduodenal, 0.316 mg/kg): 17%; Heart Rate, peak effect as % of max. isoproterenol ([3]; intraduodenal, 0.316 mg/kg): 11%; Rt. Ventricular Contractile Force, peak effect as % of max. isoproterenol ([3]; intraduodenal, 0.316 mg/kg): 23%; Blood Pressure, peak effect as % of max. isoproterenol ([3]; intraduodenal, 1.0 mg/kg): 54%; Heart Rate, peak effect as % of max. isoproterenol ([3]; intraduodenal, 1.0 mg/kg): 44%; Rt. Ventricular Contractile Force, peak effect as % of max. isoproterenol ([3]; intraduodenal, 1.0 mg/kg): 69%; Blood Pressure, peak effect as % of max. isoproterenol ([3]; intraduodenal, 3.16 mg/kg): 94%; Heart Rate, peak effect as % of max. isoproterenol ([3]; intraduodenal, 3.16 mg/kg): 58%; Rt. Ventricular Contractile Force, peak effect as % of max. isoproterenol ([3]; intraduodenal, 3.16 mg/kg): 55%
CN(C(=O)CCCCOc1ccc2c(c1)CN1CC(=O)NC1=N2)C1CCCCC1 [N-cyclohexyl-N-methyl-5-(2-oxo-1,2,3,5-tetrahydroimidazo[2,1-b]quinazolin-7-yl)oxypentanamide] | 4.6 | 58,700 | 22 nM | –
CN(C(=O)CCCCCOc1ccc2c(c1)CN1CC(=O)NC1=N2)C1CCCCC1 [N-cyclohexyl-N-methyl-6-(2-oxo-1,2,3,5-tetrahydroimidazo[2,1-b]quinazolin-7-yl)oxyhexanamide] | 12 | 22,500 | 21 nM | –
CN(C(=O)CCCCCCOc1ccc2c(c1)CN1CC(=O)NC1=N2)C1CCCCC1 [N-cyclohexyl-N-methyl-7-(2-oxo-1,2,3,5-tetrahydroimidazo[2,1-b]quinazolin-7-yl)oxyheptanamide] | 16 | 16,800 | 45 nM | –
CN(C(=O)CCCOc1ccc2c(c1)CN1CC(=O)NC1=N2)C(c1ccccc1)c1ccccc1 [N-diphenylmethyl-N-methyl-4-(2-oxo-1,2,3,5-tetrahydroimidazo[2,1-b]quinazolin-7-yl)oxybutyramide] | 15 | 18,000 | 60 nM | –
